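The concentration for 50% growth inhibition is given as GI50. TGI: total growth inhibition.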
Columns and labels:
Assay in all cases: inhibition of tumour cell growth, NCI panel, 384-well format
786-0 renal = test system: 786-0 renal
A498 renal = test system: A498 renal
A549 NSCLC = test system: A549 NSCLC
ACHN renal = test system: ACHN renal
BT-549 breast = test system: BT-549 breast
CAKI-1 renal = test system: CAKI-1 renal
CCRF-CEM leukemia = test system: CCRF-CEM leukemia
COLO 205 colon = test system: COLO 205 colon
DU-145 prostate = test system: DU-145 prostate
HCC-2998 colon = test system: HCC-2998 colon
HCT-116 colon = test system: HCT-116 colon
HCT-15 colon = test system: HCT-15 colon
HL-60(TB) leukemia = test system: HL-60(TB) leukemia
HOP-62 NSCLC = test system: HOP-62 NSCLC
HOP-92 NSCLC = test system: HOP-92 NSCLC
HT29 colon = test system: HT29 colon
IGROV1 ovarian = test system: IGROV1 ovarian
K-562 leukemia = test system: K-562 leukemia
KM12 colon = test system: KM12 colon
LOX IMVI melanoma = test system: LOX IMVI melanoma
M14 melanoma = test system: M14 melanoma
MALME-3M melanoma = test system: MALME-3M melanoma
MCF7 breast = test system: MCF7 breast
MDA-MB-231 breast = test system: MDA-MB-231 breast
MDA-MB-435 melanoma = test system: MDA-MB-435 melanoma
MDA-MB-468 breast = test system: MDA-MB-468 breast
MOLT-4 leukemia = test system: MOLT-4 leukemia
NCI-H226 lung = test system: NCI-H226 lung
NCI-H23 lung = test system: NCI-H23 lung
NCI-H322M lung = test system: NCI-H322M lung
NCI-H460 NSCLC = test system: NCI-H460 NSCLC
NCI-H522 lung = test system: NCI-H522 lung
NCI/ADR-RES ovarian = test system: NCI/ADR-RES ovarian
OVCAR-3 ovarian = test system: OVCAR-3 ovarian
OVCAR-4 ovarian = test system: OVCAR-4 ovarian
OVCAR-5 ovarian = test system: OVCAR-5 ovarian
OVCAR-8 ovarian = test system: OVCAR-8 ovarian
PC-3 prostate = test system: PC-3 prostate
RPMI-8226 leukemia = test system: RPMI-8226 leukemia
RXF 393 renal = test system: RXF 393 renal
SF-268 CNS = test system: SF-268 CNS
SF-295 CNS = test system: SF-295 CNS
SF-539 CNS = test system: SF-539 CNS
SK-MEL-2 melanoma = test system: SK-MEL-2 melanoma
SK-MEL-28 melanoma = test system: SK-MEL-28 melanoma
SK-MEL-5 melanoma = test system: SK-MEL-5 melanoma
SK-OV-3 ovarian = test system: SK-OV-3 ovarian
SN12C renal = test system: SN12C renal
SNB-19 CNS = test system: SNB-19 CNS
SR leukemia = test system: SR leukemia
SW-620 colon = test system: SW-620 colon
T-47D breast = test system: T-47D breast
TK-10 renal = test system: TK-10 renal
U251 glioblastoma = test system: U251 glioblastoma
UACC-257 melanoma = test system: UACC-257 melanoma
UACC-62 melanoma = test system: UACC-62 melanoma
UO-31 renal = test system: UO-31 renal

## O=C(NS(=O)(=O)c1ccc(NC[C@H]2COCCO2)c([N+](=O)[O-])c1)c1ccc(N2CCN(CC3=C(c4ccc(Cl)cc4)CC4(CCC4)CC3)CC2)cc1Oc1cnc2[nH]ccc2c1
786-0 renal
  GI50: 2410 nM
  TGI: 6.75 µM
A498 renal
  GI50: 1860 nM
  TGI: 5.09 µM
A549 NSCLC
  GI50: 2340 nM
  TGI: 7.54 µM
ACHN renal
  GI50: 2370 nM
  TGI: 6.63 µM
BT-549 breast
  GI50: 2630 nM
  TGI: 5.74 µM
CAKI-1 renal
  GI50: 2170 nM
  TGI: 5.11 µM
CCRF-CEM leukemia
  GI50: 1340 nM
  TGI: 2640 nM
COLO 205 colon
  GI50: 2260 nM
  TGI: 4.27 µM
DU-145 prostate
  GI50: 2820 nM
  TGI: 7.77 µM
HCC-2998 colon
  GI50: 1810 nM
  TGI: 3.37 µM
HCT-116 colon
  GI50: 2300 nM
  TGI: 5.47 µM
HCT-15 colon
  GI50: 2020 nM
  TGI: 4.07 µM
HL-60(TB) leukemia
  GI50: 23.9 nM
  TGI: 1240 nM
HOP-62 NSCLC
  GI50: 2240 nM
  TGI: 5.19 µM
HOP-92 NSCLC
  GI50: 1560 nM
  TGI: 3.1 µM
HT29 colon
  GI50: 2320 nM
  TGI: 5.17 µM
IGROV1 ovarian
  GI50: 1840 nM
  TGI: 4.31 µM
K-562 leukemia
  GI50: 3.32 µM
  TGI: 11.1 µM
KM12 colon
  GI50: 2510 nM
  TGI: 6.15 µM
LOX IMVI melanoma
  GI50: 2800 nM
  TGI: 5.3 µM
M14 melanoma
  GI50: 2100 nM
  TGI: 4.14 µM
MALME-3M melanoma
  GI50: 2280 nM
  TGI: 4.37 µM
MCF7 breast
  GI50: 2650 nM
  TGI: 8.8 µM
MDA-MB-231 breast
  GI50: 2060 nM
  TGI: 4.32 µM
MDA-MB-435 melanoma
  GI50: 2380 nM
  TGI: 5.03 µM
MDA-MB-468 breast
  GI50: 1830 nM
  TGI: 3.86 µM
MOLT-4 leukemia
  GI50: 814 nM
  TGI: 2080 nM
NCI-H226 lung
  GI50: 1980 nM
  TGI: 4.2 µM
NCI-H23 lung
  GI50: 1890 nM
  TGI: 4.05 µM
NCI-H322M lung
  GI50: 2790 nM
  TGI: 6.65 µM
NCI-H460 NSCLC
  GI50: 1650 nM
  TGI: 3.98 µM
NCI-H522 lung
  GI50: 3000 nM
  TGI: 7.32 µM
NCI/ADR-RES ovarian
  GI50: 4.66 µM
  TGI: 16.7 µM
OVCAR-3 ovarian
  GI50: 2000 nM
  TGI: 3.91 µM
OVCAR-4 ovarian
  GI50: 2640 nM
  TGI: 6.47 µM
OVCAR-5 ovarian
  GI50: 2150 nM
  TGI: 4.28 µM
OVCAR-8 ovarian
  GI50: 2990 nM
  TGI: 9.88 µM
PC-3 prostate
  GI50: 2120 nM
  TGI: 5.15 µM
RPMI-8226 leukemia
  GI50: 1020 nM
  TGI: 2180 nM
RXF 393 renal
  GI50: 1340 nM
  TGI: 2940 nM
SF-268 CNS
  GI50: 3.32 µM
  TGI: 8.91 µM
SF-295 CNS
  GI50: 1390 nM
  TGI: 3.24 µM
SF-539 CNS
  GI50: 1970 nM
  TGI: 4.22 µM
SK-MEL-2 melanoma
  GI50: 1990 nM
  TGI: 3.69 µM
SK-MEL-28 melanoma
  GI50: 2530 nM
  TGI: 5.49 µM
SK-MEL-5 melanoma
  GI50: 1810 nM
  TGI: 3.33 µM
SK-OV-3 ovarian
  GI50: 2910 nM
  TGI: 7.58 µM
SN12C renal
  GI50: 2520 nM
  TGI: 7.27 µM
SNB-19 CNS
  GI50: 3.97 µM
  TGI: 14.7 µM
SR leukemia
  GI50: 1130 nM
  TGI: 2350 nM
SW-620 colon
  GI50: 3.96 µM
  TGI: 12.9 µM
T-47D breast
  GI50: 2920 nM
  TGI: 9.74 µM
TK-10 renal
  GI50: 2690 nM
  TGI: 8.48 µM
U251 glioblastoma
  GI50: 2340 nM
  TGI: 5.35 µM
UACC-257 melanoma
  GI50: 2170 nM
  TGI: 4.31 µM
UACC-62 melanoma
  GI50: 1960 nM
  TGI: 3.78 µM
UO-31 renal
  GI50: 2100 nM
  TGI: 4.75 µM

From PubChem BioAssay (NCI)
